Results: patent US20180305329A1, “XANTHINE COMPOUND AND USE THEREOF” (SUMITOMO CHEMICAL COMPANY, LIMITED, priority 2015, published 2018)

Key:
[1] = Spectroscopic properties: quantum efficiency (QE-1100); type: physicochemical; details: fluorescence
Description: Quantum Efficiency (QE): QE-1100 (Otsuka Electronics Co., Ltd.)

[2] = test system: human and rat CYP3A; test: Molecular species selectivity evaluation, overall conclusion; type: in vitro ADME; details: conclusion from Tables 2 and 3
Experimental: (§1) A 100 mM phosphate buffer solution (pH 7.4) containing 3 μM of the compound (2) synthesized according to Example 2, 1 mM of NADPH (Wako Pure Chemical Industries, Ltd.) and 0.1% of DMSO was prepared. In each of the wells of a 96-well plate, 2 μL of each microsome from recombinant insect cell expressing different type of molecular species of CYP (CYP 2 pmol, BD Supersomes™, Nippon BD) was placed, followed by addition of 198 μL of the above-described phosphate buffer solution to start the reaction, which was incubated at 37° C. for 20 minutes. The reaction was stopped by adding 100 μL of acetonitrile (Nacalai Tesque, Inc.), and the fluorescence intensity of the obtained reaction solution was measured at the fluorescence wavelength of 520 nm with an excitation wavelength of 482 nm. A calibration curve was prepared by using the 0 μM, 0.01 μM, 0.05 μM, 0.1 μM, 0.50 μM and 1 μM solutions (100 mM phosphate buffer/acetonitrile=2/1) of the compound (1).

[3] = target: T1, rat CYP2D1 (Rattus norvegicus, UniProt P10633); test: Metabolism test with recombinant CYP microsomes (molecular species selectivity); type: in vitro ADME; details: rat CYP2D1 Supersomes, CYP 2 pmol; 3 μM compound (2); 1 mM NADPH; pH 7.4; 37° C., 20 minutes; mean ± SD
T1 construct: purchased Nippon BD (BD Supersomes); host or cells: recombinant insect cells (microsomes)
T1 sequence (P10633 1-504): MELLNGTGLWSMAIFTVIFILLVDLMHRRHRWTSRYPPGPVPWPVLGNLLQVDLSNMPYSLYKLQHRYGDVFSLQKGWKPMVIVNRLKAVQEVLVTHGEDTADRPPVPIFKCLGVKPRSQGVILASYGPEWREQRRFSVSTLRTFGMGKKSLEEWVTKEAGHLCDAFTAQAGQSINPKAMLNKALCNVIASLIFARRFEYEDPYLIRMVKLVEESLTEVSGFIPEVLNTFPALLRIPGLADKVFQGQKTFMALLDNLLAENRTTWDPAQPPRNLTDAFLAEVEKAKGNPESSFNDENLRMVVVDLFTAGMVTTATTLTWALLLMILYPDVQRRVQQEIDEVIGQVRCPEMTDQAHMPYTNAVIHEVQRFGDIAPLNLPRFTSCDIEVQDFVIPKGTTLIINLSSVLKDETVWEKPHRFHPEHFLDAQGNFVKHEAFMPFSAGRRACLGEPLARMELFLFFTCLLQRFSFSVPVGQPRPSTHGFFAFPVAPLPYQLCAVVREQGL
Experimental: as §1

[4] = target: T2, rat CYP3A2 (Rattus norvegicus, UniProt P05183); test: as above; type: in vitro ADME; details: rat CYP3A2 Supersomes, CYP 2 pmol; 3 μM compound (2); 1 mM NADPH; pH 7.4; 37° C., 20 minutes; mean ± SD
T2 construct: purchased Nippon BD (BD Supersomes); host or cells: recombinant insect cells (microsomes)
T2 sequence (P05183 1-504): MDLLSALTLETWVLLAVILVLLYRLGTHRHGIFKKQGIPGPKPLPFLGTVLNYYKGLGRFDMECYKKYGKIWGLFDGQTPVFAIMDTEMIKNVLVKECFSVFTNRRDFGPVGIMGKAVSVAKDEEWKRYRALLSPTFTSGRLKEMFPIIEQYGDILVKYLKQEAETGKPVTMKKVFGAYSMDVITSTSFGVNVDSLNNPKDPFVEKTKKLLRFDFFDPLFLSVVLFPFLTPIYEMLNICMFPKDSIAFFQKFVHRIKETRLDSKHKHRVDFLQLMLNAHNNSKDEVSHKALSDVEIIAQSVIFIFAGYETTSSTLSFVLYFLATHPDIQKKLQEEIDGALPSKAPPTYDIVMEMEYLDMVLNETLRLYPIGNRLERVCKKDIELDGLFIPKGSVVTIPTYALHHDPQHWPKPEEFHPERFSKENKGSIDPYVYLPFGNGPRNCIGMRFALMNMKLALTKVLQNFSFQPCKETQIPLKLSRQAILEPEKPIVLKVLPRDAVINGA
Experimental: as §1

[5] = target: T3, human CYP2E1 (Homo sapiens, UniProt P05181); test: as above; type: in vitro ADME; details: human CYP2E1 Supersomes, CYP 2 pmol; 3 μM compound (2); 1 mM NADPH; pH 7.4; 37° C., 20 minutes; mean ± SD
T3 construct: purchased Nippon BD (BD Supersomes); host or cells: recombinant insect cells (microsomes)
Experimental: as §1

[6] = target: T4, human CYP3A4 (Homo sapiens, UniProt P08684); test: as above; type: in vitro ADME; details: human CYP3A4 Supersomes, CYP 2 pmol; 3 μM compound (2); 1 mM NADPH; pH 7.4; 37° C., 20 minutes; mean ± SD
T4 construct: purchased Nippon BD (BD Supersomes); host or cells: recombinant insect cells (microsomes)
Experimental: as §1

[7] = target: T5, rat CYP3A1 (Rattus norvegicus, UniProt P04800); test: as above; type: in vitro ADME; details: rat CYP3A1 Supersomes, CYP 2 pmol; 3 μM compound (2); 1 mM NADPH; pH 7.4; 37° C., 20 minutes; mean ± SD
T5 construct: purchased Nippon BD (BD Supersomes); host or cells: recombinant insect cells (microsomes)
T5 sequence (P04800 1-504): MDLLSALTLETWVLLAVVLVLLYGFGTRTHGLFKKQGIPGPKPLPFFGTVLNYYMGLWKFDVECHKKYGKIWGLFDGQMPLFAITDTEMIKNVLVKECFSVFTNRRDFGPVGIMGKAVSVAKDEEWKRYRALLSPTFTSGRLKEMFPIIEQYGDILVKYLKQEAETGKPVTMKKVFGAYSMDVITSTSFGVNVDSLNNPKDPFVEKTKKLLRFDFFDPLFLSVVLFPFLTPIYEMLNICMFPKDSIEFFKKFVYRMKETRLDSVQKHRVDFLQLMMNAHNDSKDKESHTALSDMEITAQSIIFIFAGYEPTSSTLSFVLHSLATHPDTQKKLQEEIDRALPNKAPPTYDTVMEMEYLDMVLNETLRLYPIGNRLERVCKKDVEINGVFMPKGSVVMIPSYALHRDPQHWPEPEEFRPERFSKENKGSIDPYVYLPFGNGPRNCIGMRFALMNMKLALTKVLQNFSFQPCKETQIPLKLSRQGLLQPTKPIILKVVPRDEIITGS
Experimental: as §1

T4 sequence (P08684 whole entry): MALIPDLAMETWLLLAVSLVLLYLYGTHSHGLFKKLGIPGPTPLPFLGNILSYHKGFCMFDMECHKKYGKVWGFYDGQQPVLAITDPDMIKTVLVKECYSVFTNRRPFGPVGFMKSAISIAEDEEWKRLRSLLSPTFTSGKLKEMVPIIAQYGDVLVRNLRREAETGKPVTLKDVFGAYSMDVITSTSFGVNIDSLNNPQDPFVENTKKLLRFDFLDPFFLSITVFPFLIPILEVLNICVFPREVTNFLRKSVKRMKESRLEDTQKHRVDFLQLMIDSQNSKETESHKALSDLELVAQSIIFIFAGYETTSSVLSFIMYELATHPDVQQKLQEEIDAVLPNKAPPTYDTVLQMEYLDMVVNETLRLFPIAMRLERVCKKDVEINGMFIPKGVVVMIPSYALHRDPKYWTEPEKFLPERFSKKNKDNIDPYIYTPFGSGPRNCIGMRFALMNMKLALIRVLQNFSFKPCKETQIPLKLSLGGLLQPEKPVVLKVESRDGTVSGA
T3 sequence (P05181 whole entry): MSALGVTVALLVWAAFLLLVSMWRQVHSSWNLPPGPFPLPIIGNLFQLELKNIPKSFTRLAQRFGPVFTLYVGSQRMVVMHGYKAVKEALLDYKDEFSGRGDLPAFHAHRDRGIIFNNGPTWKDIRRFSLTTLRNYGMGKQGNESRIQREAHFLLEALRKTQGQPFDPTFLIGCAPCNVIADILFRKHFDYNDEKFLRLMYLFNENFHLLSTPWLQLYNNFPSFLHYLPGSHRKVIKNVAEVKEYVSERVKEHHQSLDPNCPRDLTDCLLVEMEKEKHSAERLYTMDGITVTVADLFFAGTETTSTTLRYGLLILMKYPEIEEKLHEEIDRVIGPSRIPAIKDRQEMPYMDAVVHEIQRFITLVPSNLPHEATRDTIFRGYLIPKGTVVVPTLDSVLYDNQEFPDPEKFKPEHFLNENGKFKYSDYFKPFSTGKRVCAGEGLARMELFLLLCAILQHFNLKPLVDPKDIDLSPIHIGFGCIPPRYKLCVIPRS

Structure (SMILES) | Quantum Efficiency [1] | CYP molecular species selectivity as substrate [2] | amount of the compound (1) produced by reacting the compound (2) with CYP [3] | amount of the compound (1) produced by reacting the compound (2) with CYP [4] | amount of the compound (1) produced by reacting the compound (2) with CYP [5] | amount of the compound (1) produced by reacting the compound (2) with CYP [6] | amount of the compound (1) produced by reacting the compound (2) with CYP [7]
COc1ccc(-c2c3ccc(=O)cc-3oc3cc(O)ccc23)c(C)c1 [Compound (1), 6-hydroxy-9-(4-methoxy-2-methylphenyl)-3H-xanthen-3-one] | 85.3% |  |  |  |  |  | 
COc1ccc(-c2c3ccc(=O)cc-3oc3cc(OCc4cc(C(F)(F)F)ccc4C(F)(F)F)ccc23)c(C)c1 [Compound (2), 9-(4-methoxy-2-methylphenyl)-6-bis(2,5-trifluoromethyl)benzyloxy-3H-xanthen-3-one] | 20.6% | substrate specific to human and rat CYP3A | 0.0151 ± 0.0081 (3) pmol/min/mg protein | 0.0912 ± 0.0105 (3) pmol/min/mg protein | 0.0038 ± 0.0052 (3) pmol/min/mg protein | 2.4913 ± 0.0497 (3) pmol/min/mg protein | 0.2190 ± 0.0095 (3) pmol/min/mg protein
